Read-outs that look alike come from different tables or passages of the source.
How the values were obtained:
Assay type in all cases: cell-based
[1] = target: T1, protein kinases (human kinome) (Homo sapiens, UniProt Q96L34); details: for logFC MARK4: Accession Q96L34-1
T1 sequence (Q96L34 1-752): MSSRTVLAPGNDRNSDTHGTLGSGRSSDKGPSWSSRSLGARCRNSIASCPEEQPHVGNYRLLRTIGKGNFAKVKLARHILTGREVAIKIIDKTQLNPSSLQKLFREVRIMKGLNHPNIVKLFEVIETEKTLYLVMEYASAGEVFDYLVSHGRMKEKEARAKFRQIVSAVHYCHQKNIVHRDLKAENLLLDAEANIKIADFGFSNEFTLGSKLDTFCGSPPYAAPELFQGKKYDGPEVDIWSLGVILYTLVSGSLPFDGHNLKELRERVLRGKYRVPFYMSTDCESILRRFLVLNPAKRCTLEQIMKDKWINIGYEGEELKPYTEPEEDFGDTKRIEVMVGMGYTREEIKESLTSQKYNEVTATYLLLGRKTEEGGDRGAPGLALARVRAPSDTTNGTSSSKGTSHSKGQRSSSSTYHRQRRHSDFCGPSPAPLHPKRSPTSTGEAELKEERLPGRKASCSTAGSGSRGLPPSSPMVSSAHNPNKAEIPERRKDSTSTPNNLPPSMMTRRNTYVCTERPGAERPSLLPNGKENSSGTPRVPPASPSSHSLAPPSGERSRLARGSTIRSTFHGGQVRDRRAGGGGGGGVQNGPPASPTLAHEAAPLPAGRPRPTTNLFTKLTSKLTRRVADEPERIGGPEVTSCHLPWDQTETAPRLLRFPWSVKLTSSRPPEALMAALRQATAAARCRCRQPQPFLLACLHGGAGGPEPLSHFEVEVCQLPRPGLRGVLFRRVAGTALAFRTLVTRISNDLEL

[2] = target: protein kinases (human kinome) (Homo sapiens, UniProt P51812); details: RPS6KA3 (P51812)
Chain of protein kinases (human kinome) (Homo sapiens, UniProt P51812) (P51812 whole entry): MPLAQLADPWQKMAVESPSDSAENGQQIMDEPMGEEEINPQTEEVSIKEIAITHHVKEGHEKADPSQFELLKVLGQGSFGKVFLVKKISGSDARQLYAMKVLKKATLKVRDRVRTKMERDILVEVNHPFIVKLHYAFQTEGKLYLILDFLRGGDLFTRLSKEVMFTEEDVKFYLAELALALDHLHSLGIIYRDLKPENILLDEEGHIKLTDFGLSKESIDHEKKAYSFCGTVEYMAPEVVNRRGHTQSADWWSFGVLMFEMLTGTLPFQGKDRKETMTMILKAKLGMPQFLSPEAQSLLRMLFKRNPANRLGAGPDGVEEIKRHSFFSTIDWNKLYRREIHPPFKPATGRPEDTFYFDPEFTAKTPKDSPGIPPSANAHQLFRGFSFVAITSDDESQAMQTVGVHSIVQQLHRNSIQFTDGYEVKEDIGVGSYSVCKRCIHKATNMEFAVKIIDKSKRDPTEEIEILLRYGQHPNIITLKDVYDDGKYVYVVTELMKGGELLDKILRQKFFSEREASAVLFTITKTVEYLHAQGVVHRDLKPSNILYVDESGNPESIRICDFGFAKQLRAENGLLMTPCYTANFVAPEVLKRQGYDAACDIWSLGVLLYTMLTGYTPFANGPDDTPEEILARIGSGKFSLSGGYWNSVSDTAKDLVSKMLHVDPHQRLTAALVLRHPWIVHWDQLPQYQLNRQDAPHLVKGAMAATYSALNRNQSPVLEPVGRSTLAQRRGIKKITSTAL

[3] = target: T2, protein kinases (human kinome) (Homo sapiens, UniProt Q8TAS1)
T2 sequence (Q8TAS1 1-419): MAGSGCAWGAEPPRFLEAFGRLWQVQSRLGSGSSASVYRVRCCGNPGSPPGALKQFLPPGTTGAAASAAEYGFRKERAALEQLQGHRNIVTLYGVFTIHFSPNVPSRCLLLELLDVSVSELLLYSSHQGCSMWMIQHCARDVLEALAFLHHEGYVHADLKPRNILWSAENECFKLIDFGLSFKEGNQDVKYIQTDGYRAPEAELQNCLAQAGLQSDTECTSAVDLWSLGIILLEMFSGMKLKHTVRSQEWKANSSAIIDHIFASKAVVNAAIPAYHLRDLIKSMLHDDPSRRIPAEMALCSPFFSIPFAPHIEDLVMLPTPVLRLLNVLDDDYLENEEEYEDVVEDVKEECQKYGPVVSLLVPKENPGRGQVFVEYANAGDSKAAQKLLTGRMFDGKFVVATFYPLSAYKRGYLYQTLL

[4] = target: T3, protein kinases (human kinome) (Homo sapiens, UniProt Q969Z0); details: Accession Q969Z0-1, direction down
T3 sequence (Q969Z0 108-631): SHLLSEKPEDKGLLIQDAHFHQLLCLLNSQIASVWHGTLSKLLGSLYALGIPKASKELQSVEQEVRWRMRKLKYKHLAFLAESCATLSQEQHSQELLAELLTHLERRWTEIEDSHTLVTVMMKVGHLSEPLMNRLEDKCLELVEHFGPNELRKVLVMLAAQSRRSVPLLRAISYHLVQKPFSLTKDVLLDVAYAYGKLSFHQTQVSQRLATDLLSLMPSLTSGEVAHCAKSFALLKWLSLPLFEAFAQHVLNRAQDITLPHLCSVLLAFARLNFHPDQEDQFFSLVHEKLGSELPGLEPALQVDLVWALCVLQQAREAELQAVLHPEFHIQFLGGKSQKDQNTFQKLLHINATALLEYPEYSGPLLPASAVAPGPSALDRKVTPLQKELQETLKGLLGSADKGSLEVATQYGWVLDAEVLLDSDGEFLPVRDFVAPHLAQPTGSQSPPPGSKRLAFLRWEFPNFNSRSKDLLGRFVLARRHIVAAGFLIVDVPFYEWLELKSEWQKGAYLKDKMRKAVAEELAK

[5] = experiment wp168, direction down
[6] = Accession Q8TAS1, experiment wp076, direction down
[7] = UHMK1 (Q8TAS1), experiment wp076
[8] = experiment wp146, direction down

O=C(COc1cccc2c1C(=O)N(C1CCC(=O)NC1=O)C2=O)NCCCCCCCN1CCc2cc(Nc3ncc(C4CC4)c(NCCCNC(=O)C4CCC4)n3)ccc2C1 (stereo not drawn) [BSJ.04.178]
logFC MARK4 ([1]; experiment wp134): −0.993
logFC MARK4 (Q96L34-1) ([1]; experiment wp134): −0.993

Cc1ncsc1-c1ccc([C@H](C)NC(=O)[C@@H]2C[C@@H](O)CN2C(=O)[C@@H](NC(=O)CCCCCN2CCc3cc(Nc4ncc(C5CC5)c(NCCCNC(=O)C5CCC5)n4)ccc3C2)C(C)(C)C)cc1 [BSJ.05.026]
logFC MARK4 ([1]; experiment wp195): −1.571
logFC MARK4 (Q96L34-1) ([1]; Experiment wp195): −1.571

Cc1ccc(NC(=O)c2cccc(C(F)(F)F)c2)cc1N1Cc2cnc(Nc3ccc(N4CCN(Cc5cn(CCCCCOc6cccc7c6C(=O)N(C6CCC(=O)NC6=O)C7=O)nn5)CC4)nc3)nc2N(C)C1=O (stereo not drawn) [DB0646, N-(3-(7-((6-(4-((1-(5-((2-(2,6-Dioxopiperidin-3-yl)-1,3-dioxoisoindolin-4-yl)oxy)pentyl)-1H-1,2,3-triazol-4-yl)methyl)piperazin-1-v)pyridin-3-yl)amino)-1-methyl-2-oxo-1,4-dihydropyrimido[4,5-d]pyrimidin-3(2H)-yl)-4-methylphenyl)-3-(trifluoromethyl)benzamide]
logFC ([2]; experiment wp160, 8 hr): −0.3332
logFC ([2]; experiment wp160, 8 hr, direction down): −0.3332
logFC UHMK1 ([3]; Accession Q8TAS1, experiment wp107, direction down): −0.3263
logFC UHMK1 ([3]; Accession Q8TAS1, experiment wp117, direction down): −0.4722
logFC UHMK1 ([3]; Accession Q8TAS1, experiment wp160, 2 hr, direction down): −0.4468
logFC UHMK1 ([3]; Accession Q8TAS1, experiment wp160, 4 hr, direction down): −0.7551
logFC UHMK1 ([3]; Accession Q8TAS1, experiment wp160, 8 hr, direction down): −0.5196
logFC UHMK1 ([3]; UHMK1 (Q8TAS1), experiment wp045): −0.3945
logFC UHMK1 ([3]; UHMK1 (Q8TAS1), experiment wp107): −0.3263
logFC UHMK1 ([3]; UHMK1 (Q8TAS1), experiment wp117): −0.4722
logFC UHMK1 ([3]; UHMK1 (Q8TAS1), experiment wp160, 2 hr): −0.4468
logFC UHMK1 ([3]; UHMK1 (Q8TAS1), experiment wp160, 4 hr): −0.7551
logFC UHMK1 ([3]; UHMK1 (Q8TAS1), experiment wp160, 8 hr): −0.5196
logFC UHMK1 (Q8TAS1) ([3]; experiment wp045): −0.3945

Cc1ccc(NC(=O)c2cccc(C(F)(F)F)c2)cc1N1Cc2cnc(Nc3ccc(N4CCN(CCCOc5cccc6c5C(=O)N(C5CCC(=O)NC5=O)C6=O)CC4)nc3)nc2N(C)C1=O (stereo not drawn) [DB0662]
logFC ([2]; experiment wp168): −0.452
logFC [2, 5]: −0.452
logFC UHMK1 ([3]; Accession Q8TAS1, experiment wp168, direction down): −0.3949
logFC UHMK1 ([3]; UHMK1 (Q8TAS1), experiment wp168): −0.3949

Cc1ccc(NC(=O)c2cccc(C(F)(F)F)c2)cc1N1Cc2cnc(Nc3ccc(N4CCN(CCCCC(=O)N[C@H](C(=O)N5C[C@H](O)C[C@H]5C(=O)N[C@@H](C)c5ccc(-c6scnc6C)cc5)C(C)(C)C)CC4)nc3)nc2N(C)C1=O [DB1113]
logFC ([2]; experiment wp168): −0.5079
logFC [2, 5]: −0.5079

Cc1ncsc1-c1ccc([C@H](C)NC(=O)[C@@H]2C[C@@H](O)CN2C(=O)[C@@H](NC(=O)CCOCCOCCN2CCN(c3ccc(Nc4ncc(Cl)c(Nc5ccccc5S(=O)(=O)C(C)C)n4)cc3)CC2)C(C)(C)C)cc1 [FMF.06.098.1]
logFC UHMK1 ([3]; Accession Q8TAS1, experiment wp108, direction down): −0.3878
logFC UHMK1 ([3]; UHMK1 (Q8TAS1), experiment wp108): −0.3878
logFC MARK4 ([1]; experiment wp108): −0.9041
logFC MARK4 ([1]; experiment wp114): −0.7224
logFC MARK4 ([1]; experiment wp131): −1.111
logFC MARK4 (Q96L34-1) ([1]; Experiment wp108): −0.9041
logFC MARK4 (Q96L34-1) ([1]; experiment wp114): −0.7224
logFC MARK4 (Q96L34-1) ([1]; experiment wp131): −1.111

Cc1cnc(Nc2ccc(N3CCN(CCCCCCC(=O)N[C@H](C(=O)N4C[C@H](O)C[C@H]4C(=O)N[C@@H](C)c4ccc(-c5scnc5C)cc4)C(C)(C)C)CC3)cc2)nc1Nc1cccc(S(=O)(=O)NC(C)(C)C)c1 [JWG.123]
logFC MARK4 ([1]; experiment wp195): −1.532
logFC MARK4 (Q96L34-1) ([1]; Experiment wp195): −1.532

CCc1cnn2c(N(Cc3ccc(N)nc3)C(=O)CCOCCOCCOCCNC(=O)CNc3cccc4c3C(=O)N(C3CCC(=O)NC3=O)C4=O)cc(N3CCCC[C@H]3CCO)nc12 (stereo partly drawn) [MFH.5.115.2]
logFC UHMK1 [3, 6]: −0.8774
logFC UHMK1 [3, 7]: −0.8774

O=C1CCC(N2C(=O)c3cccc(NCCCCCCCCN4CCC(NC(=O)c5[nH]ncc5NC(=O)c5c(Cl)cccc5Cl)CC4)c3C2=O)C(=O)N1 (stereo not drawn) [MFH.5.126.1]
logFC UHMK1 [3, 6]: −0.4789
logFC UHMK1 [3, 7]: −0.4789

Cc1ncsc1-c1ccc([C@H](C)NC(=O)[C@@H]2C[C@@H](O)CN2C(=O)[C@@H](NC(=O)CCCCCN2CCN(c3ccc(Nc4ncc5scc(-c6cccc(NS(C)(=O)=O)c6)c5n4)cc3)CC2)C(C)(C)C)cc1 [RSS0680, (2S,4R)-1-((S)-3,3-Dimethyl-2-(6-(4-(4-((7-(3-(methylsulfonamido)phenyl)thieno[3,2-d]pyrimidin-2-yl)amino)phenyl)piperazin-1-yl)hexanamido)butanoyl)-4-hydroxy-N—((S)-1-(4-(4-methylthiazol-5yl)phenyl)ethyl)pyrrolidine-2-carboxamide]
logFC MARK4 ([1]; experiment wp080): −0.4537
logFC MARK4 (Q96L34-1) ([1]; experiment wp080): −0.4537

Cn1c(=O)c(-c2c(Cl)cccc2Cl)cc2cnc(Nc3ccc(OCCNC(=O)CCCCCCNC(=O)COc4cccc5c4C(=O)N(C4CCC(=O)NC4=O)C5=O)cc3)nc21 (stereo not drawn) [SB1.G.192.1]
logFC TBRG4 ([4]; experiment wp081): −0.3452

CC(C)S(=O)(=O)c1ccccc1Nc1nc(Nc2ccc(N3CCN(CCOCCOCCNC(=O)CNc4cccc5c4C(=O)N(C4CCC(=O)NC4=O)C5=O)CC3)cc2)ncc1Cl (stereo not drawn) [TL12.186]
logFC MARK4 ([1]; experiment wp137): −1.298
logFC MARK4 (Q96L34-1) ([1]; experiment wp131): −1.829
logFC MARK4 (Q96L34-1) ([1]; experiment wp137): −1.298
logFC TBRG4 ([4]; experiment wp137): −0.3425

CC(C)S(=O)(=O)c1ccccc1Nc1nc(Nc2ccc(N3CCN(CCOCCOCCC(=O)NCCNc4cccc5c4CN(C4CCC(=O)NC4=O)C5=O)CC3)cc2)ncc1Cl (stereo not drawn) [TL13.97]
logFC MARK4 ([1]; experiment wp137): −1.74
logFC MARK4 (Q96L34-1) ([1]; experiment wp137): −1.74

NC(=O)c1c(F)cccc1Nc1nc(Nc2ccc(S(=O)(=O)NCCOCCOCCOCCOCCNc3cccc4c3C(=O)N(C3CCC(=O)NC3=O)C4=O)cc2)ncc1Br (stereo not drawn) [TMX.02.138]
logFC ([2]; experiment wp146): −0.4023
logFC [2, 8]: −0.4023

Cc1cc(Nc2ncc(Br)c(Nc3cccc(F)c3C(N)=O)n2)ccc1S(=O)(=O)NCCOCCOCCOCCOCCNc1cccc2c1C(=O)N(C1CCC(=O)NC1=O)C2=O (stereo not drawn) [TMX.02.174]
logFC ([2]; experiment wp146): −0.4312
logFC [2, 8]: −0.4312

— patent publication US20240269139A1, “COMPOUNDS FOR TARGETED PROTEIN DEGRADATION OF KINASES” (DANA-FARBER CANCER INSTITUTE, INC., priority 2020, published 2024)
